Source: patent US11292788B2, “IL-17 and IFN-gamma inhibition for the treatment of autoimmune diseases and chronic inflammation” (Immunic AG, priority 2017, dated 2022)
Converted amounts (≈) assume the structure as drawn. Where two headings read alike, the source gives them in different places.

How the values were obtained:
[1] = system: IL-17A; experiment: Cytokine assay: IL-17A production by human PBMC stimulated with PHA; format: cell-based; conditions: IC50 class, read-out: IL-17A Inhib.
How it was run: (§1)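 Compounds were titrated semilogarithmically for IC50, or screened at 10, 1, 0.1 and 0.01 μM, on healthy-donor PBMC stimulated for 48 h with 2 μg/ml PHA at 1×10^5 cells/well. Cytokines in culture supernatants were then quantified by ELISA or Luminex bead assay.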

[2] = system: IL-17F; experiment: Cytokine assay: IL-17F production by human PBMC stimulated with PHA; format: cell-based; conditions: IC50 class, read-out: IL-17F Inhib.
How it was run: as §1

[3] = system: INF-γ; experiment: Cytokine assay: INF-γ production by human PBMC stimulated with PHA; format: cell-based; conditions: IC50 class, read-out: IFN-gamma Inhib.
How it was run: as §1

[4] = Aqueous solubility in 50 mM phosphate buffer (HPLC/DAD); format: physicochemical; conditions: aqueous solubility class; for solubility at 24 h: 50 mM phosphate buffer, 23 °C, pH 7.4, aqueous buffer, kinetic from dmso stock, read-out: aq. solub.
How it was run: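 Compound at 200 μM (1% DMSO final) shaken 24 h at 23° C in aqueous phosphate buffers at pH 4.0, 6.0, 7.4 and 9.0. Undissolved material removed by centrifugation (30 min, 18000 g). Supernatant concentration quantified by HPLC-UV against a 0.1–200 μg/ml standard curve in MeCN.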

[5] = Microsomal stability: incubation with human liver microsomes, residual parent compound by HPLC-MS/MS; format: in vitro ADME; conditions: up to 60 min, read-out: t1/2 hLM
How it was run: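 Compound at 1 μM final with 0.5 mg/ml pooled human liver microsomes and NADPH regenerating system, 0.1 M potassium phosphate pH 7.4, 0.4% DMSO, 37° C, sampled up to 60 min. Residual parent measured by HPLC-MS/MS; half-life and clearance from slope of remaining % of T0.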

[6] = human liver microsomes 0.5 mg/ml, compound 1 μM, pH 7.4, 37° C.
[7] = pH 7.4, human liver microsomes, 1 μM compound, 0.5 mg/ml HLM, 37° C.

C[C@]1(O)C[C@H](n2ncc(-c3onc(-c4ccccc4Cl)c3C(=O)OC3CC3)c2C(F)(F)F)C1 [Example 49, cyclopropyl 3-(2-chlorophenyl)-5-(1-(3-hydroxy-3-methylcyclobutyl)-5-(trifluoromethyl)-1H-pyrazol-4-yl)isoxazole-4-carboxylate]
IC50 [1]: < 50 nM | IC50 [2]: < 50 nM | IC50 [3]: < 50 nM | solubility at 24 h [4]: 1 to 2.99 µM (≈ 0.482 to 1.44 µg/mL) | half-life at 1 μM [5, 6]: > 100 min

Cc1c(-c2onc(-c3ccccc3Cl)c2-c2ncccn2)cnn1[C@H]1C[C@@](C)(O)C1 [Example 99, 3-(4-(3-(2-chlorophenyl)-4-(pyrimidin-2-yl)isoxazol-5-yl)-5-methyl-1H-pyrazol-1-yl)-1-methylcyclobutan-1-ol]
IC50 ([1]; Homo sapiens, PBMC): 50 to 500 nM | IC50 ([2]; Homo sapiens, PBMC): < 50 nM | IC50 ([3]; Homo sapiens, PBMC): < 50 nM | solubility at 24 h [4]: > 10 µM | half-life at 1 μM [5, 7]: > 100 min

COC(=O)c1c(-c2c(F)cccc2Cl)noc1-c1cnn(CCC(C)(C)O)c1C [Example 20, methyl 3-(2-chloro-6-fluorophenyl)-5-[1-(3-hydroxy-3-methylbutyl)-5-methyl-1H-pyrazol-4-yl]-1,2-oxazole-4-carboxylate]
IC50 ([1]; Homo sapiens, PBMC): < 50 nM | IC50 ([2]; Homo sapiens, PBMC): < 50 nM | IC50 ([3]; Homo sapiens, PBMC): < 50 nM | solubility at 24 h [4]: > 10 µM | half-life at 1 μM [5, 6]: > 100 min

Cc1c(-c2onc(-c3c(F)cccc3Cl)c2COC2CC2)cnn1CCC(C)(C)O [Example 82, 4-{4-[3-(2-chloro-6-fluorophenyl)-4-(cyclopropoxymethyl)-1,2-oxazol-5-yl]-5-methyl-1H-pyrazol-1-yl}-2-methylbutan-2-ol]
IC50 ([1]; Homo sapiens, PBMC): < 50 nM | IC50 ([2]; Homo sapiens, PBMC): < 50 nM | IC50 ([3]; Homo sapiens, PBMC): < 50 nM | solubility at 24 h [4]: > 10 µM | half-life at 1 μM [5, 6]: > 100 min

C[C@@H](O)Cn1ncc(-c2onc(-c3c(F)cccc3Cl)c2C(=O)NC2CCCC2)c1C(F)(F)F [Example 44, 3-(2-chloro-6-fluorophenyl)-N-cyclopentyl-5-{1-[1-(2R)-2-hydroxypropyl]-5-(trifluoromethyl)-1H-pyrazol-4-yl}-1,2-oxazole-4-carboxamide]
IC50 ([1]; Homo sapiens, PBMC): 50 to 500 nM | IC50 ([2]; Homo sapiens, PBMC): 500 to 5000 nM | IC50 ([3]; Homo sapiens, PBMC): 50 to 500 nM | solubility at 24 h [4]: > 10 µM | half-life at 1 μM [5, 6]: 2 to 9.99 min

C[C@]1(O)C[C@@H](n2ncc(-c3onc(-c4ccccc4Cl)c3-c3ncccn3)c2C(F)(F)F)C1 [Example 102, 3-{4-[3-(2-chlorophenyl)-4-(pyrimidin-2-yl)-1,2-oxazol-5-yl]-5-(trifluoromethyl)-1H-pyrazol-1-yl}-1-methylcyclobutan-1-ol]
IC50 ([1]; Homo sapiens, PBMC): < 50 nM | IC50 ([2]; Homo sapiens, PBMC): < 50 nM | IC50 ([3]; Homo sapiens, PBMC): < 50 nM | solubility at 24 h [4]: > 10 µM | half-life at 1 μM [5, 7]: > 100 min

COC(=O)c1c(-c2c(F)cccc2Cl)noc1-c1cnn([C@H]2C[C@](C)(O)C2)c1C(F)(F)F [Example 26, methyl 3-(2-chloro-6-fluorophenyl)-5-(1-(3-hydroxy-3-methylcyclobutyl)-5-(trifluoromethyl)-1H-pyrazol-4-yl)isoxazole-4-carboxylate]
IC50 [1]: 500 to 5000 nM | IC50 [2]: 500 to 5000 nM | IC50 [3]: 500 to 5000 nM | aq. solub. [4]: + (+: 1-2.99 μM) | half-life at 1 μM [5, 6]: 40 to 100 min

CC(C)(O)Cn1ncc(-c2onc(-c3c(F)cccc3Cl)c2C(=O)OC2CCC2)c1C(F)(F)F [Example 56, cyclobutyl 3-(2-chloro-6-fluorophenyl)-5-[1-(2-hydroxy-2-methylpropyl)-5-(trifluoromethyl)-1H-pyrazol-4-yl]-1,2-oxazole-4-carboxylate]
IC50 ([1]; Homo sapiens, PBMC): < 50 nM | IC50 ([2]; Homo sapiens, PBMC): < 50 nM | IC50 ([3]; Homo sapiens, PBMC): < 50 nM | solubility at 24 h [4]: 1 to 2.99 µM (≈ 0.502 to 1.5 µg/mL) | half-life at 1 μM [5, 6]: 2 to 9.99 min

CCOC(=O)c1c(-c2c(F)cccc2Cl)noc1-c1cnn(CC(O)CC)c1C(F)(F)F (racemic) [Example 14, ethyl 3-(2-chloro-6-fluorophenyl)-5-[1-(2-hydroxybutyl)-5-(trifluoromethyl)-1H-pyrazol-4-yl]-1,2-oxazole-4-carboxylate]
IC50 ([1]; Homo sapiens, PBMC): < 50 nM | IC50 ([2]; Homo sapiens, PBMC): < 50 nM | IC50 ([3]; Homo sapiens, PBMC): < 50 nM | solubility at 24 h [4]: 3 to 9.99 µM (≈ 1.43 to 4.75 µg/mL) | half-life at 1 μM [5, 6]: 10 to 40 min

CC(C)(O)CCn1ncc(-c2onc(-c3ccccc3Cl)c2COC2CC2)c1C(F)(F)F [Example 78, 4-{4-[3-(2-chlorophenyl)-4-(cyclopropoxymethyl)-1,2-oxazol-5-yl]-5-(trifluoromethyl)-1H-pyrazol-1-yl}-2-methylbutan-2-ol]
IC50 ([1]; Homo sapiens, PBMC): 50 to 500 nM | IC50 ([2]; Homo sapiens, PBMC): < 50 nM | IC50 ([3]; Homo sapiens, PBMC): < 50 nM | solubility at 24 h [4]: > 10 µM | half-life at 1 μM [5, 6]: 40 to 100 min

CCN(CC)CCCOc1cccc(-c2noc(-c3cnn(CCC(C)(C)O)c3C)c2-c2ncccn2)c1Cl [Example 147, 4-[4-(3-{2-chloro-3-[3-(diethylamino)propoxy]phenyl}-4-(pyrimidin-2-yl)-1,2-oxazol-5-yl)-5-methyl-1H-pyrazol-1-yl]-2-methylbutan-2-ol]
IC50 ([1]; Homo sapiens, PBMC): 500 to 5000 nM | IC50 ([2]; Homo sapiens, PBMC): 500 to 5000 nM | IC50 ([3]; Homo sapiens, PBMC): 50 to 500 nM | solubility at 24 h [4]: > 10 µM | half-life at 1 μM [5, 7]: > 100 min

OC1(Cn2ncc(-c3onc(-c4c(F)cccc4Cl)c3-c3nccs3)c2C(F)(F)F)CC1 [Example 2, 1-((4-(3-(2-chloro-6-fluorophenyl)-4-(thiazol-2-yl)isoxazol-5-yl)-5-(trifluoromethyl)-1H-pyrazol-1-yl)methyl)cyclopropanol]
IC50 ([1]; Homo sapiens, PBMC): < 50 nM | IC50 ([2]; Homo sapiens, PBMC): 50 to 500 nM | IC50 ([3]; Homo sapiens, PBMC): < 50 nM | solubility at 24 h [4]: 3 to 9.99 µM (≈ 1.45 to 4.84 µg/mL) | half-life at 1 μM [5, 6]: 10 to 40 min

C[C@@H](O)Cn1ncc(-c2onc(-c3c(F)cccc3Cl)c2COC2CCC2)c1C(F)(F)F [Example 90, (2R)-1-(4-(3-(2-chloro-6-fluorophenyl)-4-(cyclobutoxymethyl)isoxazol-5-yl)-5-(trifluoromethyl)-1H-pyrazol-1-yl)propan-2-ol]
IC50 ([1]; Homo sapiens, PBMC): < 50 nM | IC50 ([2]; Homo sapiens, PBMC): < 50 nM | IC50 ([3]; Homo sapiens, PBMC): < 50 nM | solubility at 24 h [4]: > 10 µM | half-life at 1 μM [5, 6]: 2 to 9.99 min

Cc1c(-c2onc(-c3c(F)cccc3Cl)c2COC2CC2)cnn1[C@H]1C[C@@](C)(O)C1 [Example 83, 3-{4-[3-(2-chloro-6-fluorophenyl)-4-(cyclopropoxymethyl)-1,2-oxazol-5-yl]-5-methyl-1H-pyrazol-1-yl}-1-methylcyclobutan-1-ol]
IC50 ([1]; Homo sapiens, PBMC): < 50 nM | IC50 ([2]; Homo sapiens, PBMC): < 50 nM | IC50 ([3]; Homo sapiens, PBMC): < 50 nM | solubility at 24 h [4]: 1 to 2.99 µM (≈ 0.432 to 1.29 µg/mL) | half-life at 1 μM [5, 6]: 40 to 100 min
